Read-outs that look alike come from different tables or passages of the source.
Tests used:
[1] = target: T1, RORγ ligand binding domain (LBD) (Homo sapiens, UniProt P51449); assay: TR-FRET Activity Assay (ligand sensing, RORγ-LBD / coactivator peptide interaction, LANCE); assay type: biochemical
T1 construct: made in house; host or cells: E. coli BL-21 (BL3), vector pDEST15
T1 sequence (P51449 269-508 limits assumed): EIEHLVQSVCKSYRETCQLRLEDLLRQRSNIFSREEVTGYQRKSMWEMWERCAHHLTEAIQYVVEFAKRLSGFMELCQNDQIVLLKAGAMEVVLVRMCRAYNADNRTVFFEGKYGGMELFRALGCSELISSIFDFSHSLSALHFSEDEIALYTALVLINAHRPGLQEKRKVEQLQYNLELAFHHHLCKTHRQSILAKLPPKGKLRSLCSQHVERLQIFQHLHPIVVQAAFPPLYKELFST

[2] = target: T2, RORγ (UniProt P51449); assay: RORγ Gal4 Reporter Gene Assay in 293T cells (firefly and renilla luciferase); assay type: cell-based, human
T2 sequence (P51449 1-518): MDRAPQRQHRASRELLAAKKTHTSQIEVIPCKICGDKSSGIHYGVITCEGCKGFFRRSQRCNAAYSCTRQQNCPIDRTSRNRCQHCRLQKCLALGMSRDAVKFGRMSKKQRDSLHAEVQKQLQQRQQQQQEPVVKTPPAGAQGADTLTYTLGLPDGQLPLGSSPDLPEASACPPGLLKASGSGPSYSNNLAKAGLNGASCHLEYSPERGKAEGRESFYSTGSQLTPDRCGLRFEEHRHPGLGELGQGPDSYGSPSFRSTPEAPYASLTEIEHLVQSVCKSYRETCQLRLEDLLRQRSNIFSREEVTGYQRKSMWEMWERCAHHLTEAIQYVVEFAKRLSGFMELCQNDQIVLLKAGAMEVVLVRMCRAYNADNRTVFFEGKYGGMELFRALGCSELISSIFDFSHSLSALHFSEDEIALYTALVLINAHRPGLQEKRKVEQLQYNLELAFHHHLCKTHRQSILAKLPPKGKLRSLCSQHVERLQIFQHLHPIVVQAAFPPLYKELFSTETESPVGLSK

[3] = first value of the cell FRET/FF/REN, TR-FRET activity assay, read-out: pIC50 (FRET) (converted)
[4] = second value of the cell, Gal4 reporter gene assay in 293T cells, firefly luciferase
[5] = third value of the cell, Gal4 reporter gene assay in 293T cells, renilla normalised luciferase

Structure (SMILES) | IC50 [1, 3] | pIC50 (FF) [2, 4] | pIC50 (REN) [2, 5] | IC50 [1] | pIC50 (FF) [2] | pIC50 (REN) [2]
Cc1c(C(N)=O)cc(-c2cc(C(C)(C)C)cc(C(C)(C)C)c2)n1S(=O)(=O)N1CCCCC1 [7/8] | 501 nM | 6.0 | 6.2 | – | – | –
COC(C)(C)c1cc(-c2cc(C(=O)NC3CCOCC3)c(C)n2CC2CCCCC2)cc(C(C)NC(C)C)c1 (stereo not drawn) [17/303] | 3980 nM | 6.3 | 6.4 | – | – | –
Cc1c(C(=O)N2CC(C(C)(C)C(=O)O)C2)cc(-c2ccc(S(=O)(=O)NC(C)(C)C)c(C(F)(F)F)c2)n1CC1CCCCC1 [17/180] | 631 nM | 7.1 | 7.2 | – | – | –
Cc1c(C(=O)NCC2(O)CCOCC2)cc(-c2ccc(S(=O)(=O)NC(C)(C)C)c(C(C)(C)C)c2)n1CC1CCCCC1 [1/124] | – | – | – | 631 nM | 6.2/7.5/7.5 | 6.2/7.5/7.5
Cc1c(C(=O)NC(C)C(C)(C)O)cc(-c2cc(C(C)(C)C)cc(C(C)(C)C)c2)n1CC1CCCCC1 (stereo not drawn) [1/36] | – | – | – | 158 nM | 6.8/6.5/6.6 | 6.8/6.5/6.6
Cc1c(C(=O)N[C@H]2CCOC2)cc(-c2cc(C(C)(C)C)c3c(c2)C2(CCO3)CC2)n1CC1CCCCC1 [1/95] | 158 nM | 7.0 | 7.1 | – | – | –
Cc1c(C(=O)NC2(C)CCOCC2)cc(-c2ccc(S(=O)(=O)NC(C)(C)C)c(C(F)(F)F)c2)n1CC1CCCCC1 [17/209] | – | – | – | 200 nM | 6.7/7.3/7.6 | 6.7/7.3/7.6
Cc1c(C(=O)NC2C[S+]([O-])C2)cc(-c2cc(C(C)(C)C)cc(C(C)(C)C)c2)n1CC1CCCCC1 (stereo not drawn) [Example 2, 1-(Cyclohexylmethyl)-5-(3,5-di-tert-butylphenyl)-2-methyl-N-(1-oxidothietan-3-yl)-1H-pyrrole-3-carboxamide] | 251 nM | 7.0 | 7.0 | – | – | –
COC(C)(C)c1cc(C(=O)NC(C)(C)C)cc(-c2cc(C(=O)NC3CCOCC3)c(C)n2CC2CCCCC2)c1 [17/324] | – | – | – | 3160 nM | 5.5/6.8/6.8 | 5.5/6.8/6.8
Cc1c(C(=O)NCC2(C)COC2)cc(-c2cc(C(C)(C)C)cc(C(C)(C)C)c2)n1CC1CCCCC1 [1/2] | – | – | – | 126 nM | 6.9/7.5/7.4 | 6.9/7.5/7.4
Cc1c(C(=O)NCC(C)(C)O)cc(-c2cc(C(=O)NC(C)C)cc(C3(C)CC3)c2)n1CC1CCCCC1 [1/112] | 501 nM | 7.1 | 7.1 | – | – | –
Cc1c(C(=O)N[C@H]2C[C@H](C(=O)O)C2)cc(-c2ccc(S(=O)(=O)NCC(F)(F)F)c3ccccc23)n1CC1CCCCC1 [17/271] | 794 nM | 7.1 | 7.1 | – | – | –
Cc1c(C(=O)NCC2(C(N)=O)CCOCC2)cc(-c2cc(C(C)(C)C)cc(C3(C)CC3)c2)n1CC1CCCCC1 [17/62] | 316 nM | 8.3 | 8.3 | – | – | –
Cc1c(C(=O)NC2CCOCC2)cc(-c2ccc(-c3ccnn3C(C)C)c(C(C)(C)C)c2)n1CC1CCCCC1 [Example 26, 5-(3-(tert-Butyl)-4-(1-isopropyl-1H-pyrazol-5-yl)phenyl)-1-(cyclohexylmethyl)-2-methyl-N-(tetrahydro-2H-pyran-4-yl)-1H-pyrrole-3-carboxamide] | 200 nM | 7.5 | 7.6 | – | – | –
Cc1c(C(N)=O)cc(-c2cccc(C(O)(C(F)(F)F)C(F)(F)F)c2)n1CC1CCCCC1 [1/47] | 3980 nM | < 4.7 | < 4.7 | – | – | –
Cc1c(C(=O)NCCc2nn[nH]n2)cc(-c2ccc(S(=O)(=O)NC(C)(C)C)c(C(C)(C)O)c2)n1CC1CCCCC1 [17/336] | 1000 nM | < 4.7 | < 4.7 | – | – | –
Cc1c(C(=O)N2CCC(C(=O)O)CC2)cc(-c2cc(C(C)(C)C)c3c(c2)C2(CCO3)CC2)n1CC1CCCCC1 [17/53] | 1580 nM | 6.9 | 6.9 | – | – | –
COCc1c(C(=O)NC2CCOCC2)cc(-c2ccc(S(=O)(=O)NC(C)(C)C)c(C(C)(C)C)c2)n1CC1CCCCC1 [1/29] | – | – | – | 631 nM | 6.2/7.2/7.2 | 6.2/7.2/7.2
Cc1c(C(=O)NC2COC2)cc(-c2cc(C(=O)NC(C)(C)C)cc(C(C)(C)C)c2)n1CC1CCCCC1 [15/5] | – | – | – | 794 nM | 6.1/7.6/7.7 | 6.1/7.6/7.7

Structure (SMILES) | IC50 [1, 3] | pIC50 (FF) [2, 4] | pIC50 (REN) [2, 5] | IC50 [1] | pIC50 (FF) [2] | pIC50 (REN) [2]
Cc1c(C(=O)NCCCN2CCOCC2)cc(-c2cc(C(C)(C)C)cc(C(C)(C)C)c2)n1CC1CCCCC1 [1/71] | 1260 nM | 5.8 | 5.9 | – | – | –
Cc1c(C(=O)NC2COC2)cc(-c2cc(C(C)(C)C)cc(C(C)(C)C)c2)n1S(=O)(=O)N1CCCCC1 [Example 7, 5-(3,5-Di-tert-butylphenyl)-2-methyl-N-(oxetan-3-yl)-1-(piperidin-1-ylsulfonyl)-1H-pyrrole-3-carboxamide] | 316 nM | 6.8 | 6.9 | – | – | –
Cc1c(C(=O)NC2CCOCC2)cc(-c2cc(C(=O)NC(C)(C)C)cc3ccccc23)n1CC1CCCCC1 [17/188] | 794 nM | 6.8 | 6.9 | – | – | –
Cc1c(C(=O)NCC2COCCN2C)cc(-c2cc(C(C)(C)C)c3c(c2)C2(CCO3)CC2)n1CC1CCCCC1 (stereo not drawn) [17/14] | 1260 nM | 5.9 | 5.7 | – | – | –
Cc1c(C(=O)NCC(C)(C)NC(=O)CCO)cc(-c2cc(C(C)(C)C)c3c(c2)C2(CCO3)CC2)n1CC1CCCCC1 [17/31] | – | – | – | 1000 nM | 6.0/7.3/7.3 | 6.0/7.3/7.3
Cc1c(C(=O)NCC(C)(C)O)cc(-c2cc(C(C)(C)C)cc(C(C)(C)C)c2)n1S(=O)(=O)N1CCCCC1 [7/7] | 398 nM | 6.5 | 6.6 | – | – | –
Cc1c(C(=O)NC2CCOCC2)cc(-c2ccc(-c3cnc(NC(C)C)nc3)c(C(C)(C)C)c2)n1CC1CCCCC1 [26/4] | 3980 nM | 6.6 | 6.8 | – | – | –
Cc1c(C(=O)NC2CCOCC2)cc(-c2ccc(-c3ccnn3C(C)C)c(C(C)(C)O)c2)n1CC1CCCCC1 [Example 27, 1-(Cyclohexylmethyl)-5-(3-(2-hydroxypropan-2-yl)-4-(1-isopropyl-1H-pyrazol-5-yl)phenyl)-2-methyl-N-(tetrahydro-2H-pyran-4-yl)-1H-pyrrole-3-carboxamide] | 2000 nM | 6.4 | 6.5 | – | – | –
Cc1c(C(=O)NC2CCOCC2)cc(-c2ccc(C(=O)NCC(F)(F)F)c(C(C)(C)C)c2)n1CC1CCCCC1 [6/2] | 3160 nM | 6.5 | 6.4 | – | – | –
Cc1c(C(=O)NCC(C)(C)c2noc(=O)[nH]2)cc(-c2cc(C(C)(C)C)cc(C3(C)CC3)c2)n1CC1CCCCC1 [17/162] | 794 nM | 7.5 | 7.7 | – | – | –
Cc1c(C(=O)NCC2(C(N)=O)CCOCC2)cc(-c2ccc(S(=O)(=O)NC(C)(C)C)c(C(F)(F)F)c2)n1CC1CCCCC1 [17/203] | 501 nM | 7.8 | 7.8 | – | – | –
Cc1c(C(=O)NC2COC2)cc(-c2cc(CN3CCOCC3)cc(C(C)(C)C)c2)n1CC1CCCCC1 [1/108] | 7940 nM | 7.2 | 7.3 | – | – | –
Cc1c(-c2cc(C(=O)N[C@H]3C[C@H](C(=O)O)C3)c(C)n2CC2CCCCC2)ccc(S(=O)(=O)NC(C)(C)C)c1C [17/272] | 501 nM | 6.8 | 6.9 | – | – | –
Cc1c(C(=O)N[C@H]2C[C@H](C(=O)O)C2)cc(-c2ccc(S(=O)(=O)NC(C)(C)C)c(OC(F)(F)F)c2)n1CC1CCCCC1 [17/174] | 200 nM | 7.1 | 7.1 | – | – | –
Cc1c(C(=O)NCC2(CCO)COC2)cc(-c2cc(C(C)(C)C)cc(C(C)(C)C)c2)n1CC1CCCCC1 [17/44] | – | – | – | 631 nM | 6.2/6.1/6.1 | 6.2/6.1/6.1
Cc1c(C(=O)NCC(C)(C)O)cc(-c2cc(OC(F)(F)F)cc(C3(C)CC3)c2)n1CC1CCCCC1 [17/348] | 316 nM | 6.9 | 7.0 | – | – | –
Cc1c(C(=O)NCCC(C)(C)C(=O)O)cc(-c2cc(C(C)(C)O)cc(C(F)(F)F)c2)n1CC1CCCCC1 [17/308] | 6310 nM | 6.5 | 6.4 | – | – | –
Cc1c(C(=O)NC2COC2)cc(-c2ccc(C(=O)N(C)C(C)(C)C)c(C(C)(C)C)c2)n1CC1CCCCC1 [1/31] | 2000 nM | 6.4 | 6.4 | – | – | –
Cc1c(C(=O)NC2CCOCC2)cc(-c2ccc(S(=O)(=O)NC(C)(C)C)c(C(F)F)c2)n1CC1CCC1 [17/126] | 316 nM | 6.7 | 6.9 | – | – | –
